The target of one experiment is T1, DPA10103-DPB10301 (Homo sapiens, UniProt P04440+P20036, A65V/A84D/A85E/E86D/F38Y/G113D/G114E/G40L/I94L/L37V/M105V/M116V/P115A/R125K/T199I).
T1 sequence (P20036 29-260): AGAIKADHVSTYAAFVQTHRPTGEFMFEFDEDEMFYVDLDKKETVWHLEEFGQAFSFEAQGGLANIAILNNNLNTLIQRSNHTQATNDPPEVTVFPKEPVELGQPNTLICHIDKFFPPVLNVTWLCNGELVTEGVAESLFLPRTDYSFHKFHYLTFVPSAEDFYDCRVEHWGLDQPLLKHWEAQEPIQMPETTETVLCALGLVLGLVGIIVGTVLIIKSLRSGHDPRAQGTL
T1 sequence (P04440 30-258 L37V/F38Y/G40L/A65V/A84D/A85E/E86D/I94L/M105V/G113D/G114E/P115A/M116V/R125K/T199I/V234M): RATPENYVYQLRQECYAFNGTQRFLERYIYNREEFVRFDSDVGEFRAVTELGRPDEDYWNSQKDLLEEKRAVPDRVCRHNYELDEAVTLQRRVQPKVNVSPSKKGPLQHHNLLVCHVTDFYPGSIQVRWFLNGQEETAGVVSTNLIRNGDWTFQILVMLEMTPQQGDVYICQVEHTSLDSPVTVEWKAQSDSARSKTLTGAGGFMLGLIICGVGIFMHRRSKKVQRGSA
Briefly: Competitive MHC class II binding assay, DPA10103-DPB10301.

In the next experiment the target is T2, DPA10103-DPB10402 (Homo sapiens, UniProt P04440+P20036, A65V/A84D/A85E/L207M).
T2 sequence (P20036 29-260): T1 sequence (P20036 29-260)
T2 sequence (P04440 30-258 A65V/A84D/A85E): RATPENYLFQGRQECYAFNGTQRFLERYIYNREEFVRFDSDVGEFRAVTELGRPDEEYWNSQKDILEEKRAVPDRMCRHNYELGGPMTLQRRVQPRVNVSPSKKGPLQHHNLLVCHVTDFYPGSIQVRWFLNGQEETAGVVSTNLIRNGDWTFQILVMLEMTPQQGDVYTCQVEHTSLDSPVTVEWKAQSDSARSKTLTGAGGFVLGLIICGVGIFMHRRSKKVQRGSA
The experiment can be described thus: Competitive MHC class II binding assay, DPA10103-DPB10402.

A further experiment has as its target DRB3_0202 (Homo sapiens, UniProt P01903+P79483, A212P/D57E/F66Y/L67A/R103Q/R218S/R40L/S89Y/T80R/V86D/Y55F/Y59H). The experiment can be described thus: Competitive MHC class II binding assay, DRB3_0202.
The target in another experiment is DQA10101-DQB10501 (Homo sapiens, UniProt P01909+P01920, A157S/A45G/A70V/C70R/D89V/E106S/E118A/E183D/E77G/F83G/G63E/H151Q/H199R/H252R/H253Q/I129T/I235V/I88M/INS77G/K197Q/L107V/L117V/L119Y/L178F/L71W/L74F/L85Q/L91A/L98M/M46L/N214S/P87R/Q116E/Q256R/Q57E/Q76K/R102G/R240Q/R75S/R78G/S102Y/S185I/S41F/S97I/T103A/T109R/T121G/T122I/T172A/T86R/V148I/V68A/V73E/Y34C/Y58G/Y62H). Briefly: Competitive MHC class II binding assay, DQA10101-DQB10501. The note with it: positive binding at cutoff 1000 nM; read-out: HLA-DQA10101-DQB10501.

The target in another experiment is DRB1_1101 (Homo sapiens, UniProt P01903+P01911, A100R/A169T/A87E/I96F/K41T/L162R/M171V/P40S/Q125H/Q178H/Q39Y/Q99D/R42S/S66Y/T262R/V115G/W38E). Briefly: Competitive MHC class II binding assay, DRB1_1101.
A further experiment has as its target DRB1_0405 (Homo sapiens, UniProt P01903+P01911, A100R/A169T/D86S/F76Y/I96L/K127E/L162R/M171V/N62H/P40V/Q125Y/R42H/S133A/S149N/S66Y/V115G/V209L/W38E). Briefly: Competitive MHC class II binding assay, DRB1_0405.
Another experiment addresses DRB1_1501 (Homo sapiens, UniProt P01903+P01911). Briefly: Competitive MHC class II binding assay, DRB1_1501.
A further experiment addresses DRB5_0101 (Homo sapiens, UniProt P01903+Q30154). Briefly: Competitive MHC class II binding assay, DRB5_0101.
The target in another experiment is T3, DPA10103-DPB10201 (Homo sapiens, UniProt P04440+P20036, A65V/A84D/A85E/K98E).
T3 sequence (P20036 29-260): T1 sequence (P20036 29-260)
T3 sequence (P04440 30-258 A65V/A84D/A85E/K98E): T2 sequence (P04440 30-258 A65V/A84D/A85E) with K69E
Briefly: Competitive MHC class II binding assay, DPA10103-DPB10201.

Where a chain is given by its changes, count along the chain named. No end group written: not given here.

For GSGSSWAFSGVAATESAYLA [pep-044], the IC50 on DPA10103-DPB10301, at DPA10103-DPB10402, on DRB3_0202, on DQA10101-DQB10501, at DRB1_1101 and on DRB1_0405 was less than 1000 nM in each case. At DRB1_1501, the IC50 is less than 1000 nM.

With LVGDNGVLASAIATHAKIRD [pep-110], at DRB5_0101, the IC50 is less than 1000 nM.

Turning to HAVNIVGYSNAQGVDYWIVR [pep-058], the IC50 at DPA10103-DPB10301, on DQA10101-DQB10501, on DRB1_1101, on DRB1_0405 and on DRB1_1501 was less than 1000 nM each time.

Consider `CC[C@H](C)[C@H](NC(=O)CNC(=O)[C@@H](NC(=O)[C@@H](NC(=O)[C@@H](NC(=O)[C@H](C)NC(=O)[C@@H](NC(=O)[C@H](C)NC(=O)[C@H](CO)NC(=O)[C@H](Cc1c[nH]cn1)NC(=O)[C@@H](NC(=O)[C@H](CCC(N)=O)NC(=O)[C@H](C)NC(=O)[C@H](CC(C)C)NC(=O)[C@H](C)NC(=O)[C@H](CCC(=O)O)NC(=O)[C@@H](N)CCCNC(=N)N)[C@@H](C)O)[C@@H](C)CC)C(C)C)[C@@H](C)CC)[C@@H](C)CC)C(=O)N[C@@H](CCCCN)C(=O)N[C@@H](CC(=O)O)C(=O)N[C@@H](CC(C)C)C(=O)N[C@@H](CC(=O)O)C(=O)N[C@@H](C)C(=O)O` [pep-130], for which the IC50 on DPA10103-DPB10301, at DPA10103-DPB10402, at DQA10101-DQB10501, on DRB5_0101, at DRB1_0405 and on DPA10103-DPB10201 was less than 1000 nM in each case.

Take LVKGQQYDIKYTWNVPKIAPK [pep-131]: the IC50 at DPA10103-DPB10301, at DRB3_0202, on DRB5_0101 and at DPA10103-DPB10201 was less than 1000 nM each time.

For DNGYGYFAANIDLMMIEE [pep-010], the IC50 on DPA10103-DPB10402, on DRB3_0202, at DQA10101-DQB10501, on DRB1_0405, at DPA10103-DPB10201 and at DRB1_1501 was less than 1000 nM throughout. On DRB3_0202 (as shown in Table 16a), the “binding to HLA Class II allele DRB3_0202” value is “binds to at least the same alleles as peptide 041”.

Values taken from patent US20160251403A1, “PEPTIDE COMBINATIONS AND USES THEREOF IN TREATING DUST MITE ALLERGY” (ALK-ABELLO A/S, priority 2013, published 2016).
